Assay results: PubChem BioAssay (NCI)
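Cells were grown in 96-well plates and exposed to each compound for 48 hours at five concentrations; endpoints were interpolated linearly between bracketing concentrations, or set to the highest concentration if not reached. Here, GI50 denotes the concentration required for 50% inhibition of growth. TGI marks complete inhibition of growth.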

How the values were obtained:
Test in all cases: growth of human tumour cells (NCI), 48 h
SNB-19 CNS = tested on: SNB-19 CNS
A498 renal = tested on: A498 renal
SNB-75 CNS = tested on: SNB-75 CNS
NCI-H522 lung = tested on: NCI-H522 lung
K-562 leukemia = tested on: K-562 leukemia
SW-620 colon = tested on: SW-620 colon
U251 CNS = tested on: U251 CNS
786-0 renal = tested on: 786-0 renal
HT29 colon = tested on: HT29 colon
HOP-92 NSCLC = tested on: HOP-92 NSCLC

| Compound | TGI (SNB-19 CNS) [µM] | TGI (A498 renal) [µM] | TGI (SNB-75 CNS) [µM] | TGI (NCI-H522 lung) [µM] | TGI (K-562 leukemia) [µM] | TGI (SW-620 colon) [µM] | TGI (U251 CNS) [µM] | TGI (786-0 renal) [µM] | TGI (HT29 colon) [µM] | GI50 (SNB-19 CNS) [µM] | GI50 (A498 renal) [µM] | GI50 (SNB-75 CNS) [µM] | GI50 (NCI-H522 lung) [µM] | GI50 (K-562 leukemia) [µM] | GI50 (SW-620 colon) [µM] | GI50 (786-0 renal) [µM] | GI50 (HT29 colon) [µM] | GI50 (U251 CNS) [µM] | TGI (HOP-92 NSCLC) [µM] | GI50 (HOP-92 NSCLC) [µM] |
| --- | --- | --- | --- | --- | --- | --- | --- | --- | --- | --- | --- | --- | --- | --- | --- | --- | --- | --- | --- | --- |
| CN(C)C(=S)/N=c1\ss/c(=N\C(=S)N(C)C)n1-c1cccc(Cl)c1 | > 100 | > 100 | > 100 | > 100 | > 100 | > 100 | > 100 | > 100 | > 100 |  |  |  |  |  |  |  |  |  |  |  |
| CCCCCCCC/C=C/CCCCCCCC1=NC(C)(C)CN1C(C)(C)CO | 6.55 | 25.7 | 5.77 | 3.7 | 5.48 | 3.11 |  | 3.12 | 3.38 | 2.39 | 11.5 | 1.89 | 1.83 | 2.12 | 1.63 | 1.64 | 1.45 |  |  |  |
| CN1CCN(C2=NC(=O)/C(=C\c3ccc(N(C)C)cc3)S2)CC1 | > 100 | > 100 | > 100 | > 100 | > 100 | > 100 | > 100 | > 100 | > 100 | > 100 | > 100 | 48.2 | > 100 | > 100 | > 100 | > 100 | 39.5 | > 100 |  |  |
| CC(C)Cc1cnc(CC(C)C)c(=O)[nH]1 | > 100 | > 100 | > 100 |  | > 100 | > 100 | > 100 | > 100 | > 100 |  |  |  |  |  |  |  |  |  | > 100 |  |
| COc1ccc(-c2nc3ccccc3s2)cc1OC | 28.3 |  | > 100 |  | > 100 | > 100 | > 100 | > 100 | > 100 |  |  |  |  |  |  |  |  |  | > 100 |  |
| O=C(CC1=Nc2nnc(CCCCCCCc3nnc4n3C(=O)C(CC(=O)c3ccc5ccccc5c3)=N4)n2C1=O)c1ccc2ccccc2c1 | > 100 |  | > 100 | > 100 | > 100 | > 100 | > 100 | > 100 | > 100 |  |  |  |  |  |  |  |  |  | > 100 |  |
| NCCO/C=C/C(N)C(=O)O (stereo not drawn) | > 100 |  | > 100 | > 100 | > 100 | > 100 | > 100 | > 100 | > 100 |  |  |  |  |  |  |  |  |  | > 100 |  |
| Cc1cccc(N2C(=O)/C(=C/C(Cl)=C/c3ccc([N+](=O)[O-])cc3)SC2=S)c1C | > 100 |  |  | 5.58 | > 100 | 4.77 | 5.94 | 4.68 | > 100 | 2.9 |  |  | 2.18 | 0.793 | 1.95 | 2.07 | 1.13 | 1.95 |  |  |
| COc1cc(N2C(=O)[C@H](Cl)C2c2ccc(SC)cc2)cc(OC)c1OC (stereo partly drawn) | > 100 |  | > 100 | 0.263 | > 100 | > 100 | > 100 | 1.83 | > 100 | 0.0965 |  | 0.0236 | 0.0299 | 0.0366 | 0.0453 | 0.0456 | 0.0438 | 0.124 | > 100 | 0.214 |
| O=C(Nc1sc2c(c1C(=O)O)CCCC2)c1ccco1 | > 50 | > 50 | > 50 | > 50 | > 50 | > 50 | > 50 | > 50 |  | 29.5 | > 50 | > 50 | > 50 | 23.9 | > 50 | > 50 |  | 16.4 | > 50 | > 50 |
| CC(=O)[CH-]C(C)=O.CC(=O)[CH-]C(C)=O.[O-]c1ccccc1.[O-]c1ccccc1.[Ti+4] | > 100 |  | > 100 | > 100 | > 100 | > 100 | > 100 | > 100 | > 100 | > 100 |  | > 100 | > 100 | > 100 | > 100 | > 100 | > 100 | > 100 | > 100 | > 100 |
| O=c1c(Cc2ccc3c(c2)OCO3)nnc2sc(-c3cc(F)c(Cl)cc3Cl)nn12 | > 100 |  | > 100 | > 100 | > 100 | 49.1 | > 100 | > 100 | > 100 | 34.3 |  | 28.5 | 33.4 | 42.8 | 19.4 | 17.2 | 35.2 | 35.7 | 88.4 | 23 |
| Cn1c(=O)oc2cc(C3CCC(=O)N3Cc3csc(-c4ccccc4)n3)ccc21 (stereo not drawn) | > 100 |  | > 100 | > 100 | > 100 | > 100 | > 100 | > 100 | > 100 |  |  |  |  |  |  |  |  |  |  |  |
| COc1ccc(-c2ccc(C3CC(c4ccccc4)=NN3)o2)c([N+](=O)[O-])c1 (stereo not drawn) | > 100 | > 100 |  | > 100 | > 100 | > 100 | > 100 | > 100 | > 100 | 86.2 | 68.4 |  | 58.4 | 34.5 | 47.5 | 60.6 | 51.3 | 57.3 | 68.2 | 24.8 |
| COC1=CC(=O)O/C1=C(\OC)C1OC1c1ccccc1 (stereo not drawn) | > 100 | > 100 |  | > 100 |  | > 100 | > 100 | > 100 | > 100 |  |  |  |  |  |  |  |  |  | > 100 |  |
| CC(=O)N1[C@H](C(=O)O)CS[C@H]1c1ccc(F)cc1 | > 100 | > 100 | > 100 |  | > 100 | > 100 |  | > 100 | > 100 |  |  |  |  |  |  |  |  |  | > 100 |  |
| CC(C)(C)C#COC(=O)c1ccccc1 | > 100 | > 100 |  | > 100 | > 100 | > 100 | > 100 | > 100 | > 100 |  |  |  |  |  |  |  |  |  |  |  |
| O=c1c2cccnc2ncn1CCCN1CCCCC1 | > 100 |  | > 100 | > 100 | > 100 | > 100 | > 100 | > 100 | > 100 |  |  |  |  |  |  |  |  |  | > 100 |  |
